According to ChEMBL document CHEMBL5724914, “Linking interpersonal differences in gut microbiota composition and drug biotransformation activity” (2024):

Assays:
[1] = (§1) The drug is tested on Z-029 corresponding to rat gut metagenome with ENA study accession number: PRJEB37062 and ENA sample accession number: ERS12561828 for biotransformation under anaerobic condition. The drug concentrations were measured over 9 timepoints collected between 0 and 24 hours of incubation by liquid-chromatography-coupled mass spectrometry (LC–MS); conditions: 2 µM
[2] = as §1, with “Z-014” for “Z-029”, “ERS12561814” for “ERS12561828”; conditions: 2 µM
[3] = as §1, with “on Z-011” for “on Z-029”, “to mouse” for “to rat”, “number: ERS12561811” for “number: ERS12561828”; conditions: 2 µM
[4] = as §1, with “Z-008” for “Z-029”, “to” for “to rat gut”, “ERS12561808” for “ERS12561828”; conditions: 2 µM
[5] = as §1, with “on Z-006” for “on Z-029”, “to mouse” for “to rat”, “number: ERS12561806” for “number: ERS12561828”; conditions: 2 µM
[6] = as §1, with “on Z-002” for “on Z-029”, “to rabbit” for “to rat”, “number: ERS12561802” for “number: ERS12561828”; conditions: 2 µM
[7] = as §1, with “on WLS-220” for “on Z-029”, “to human” for “to rat”, “number: ERS12561769” for “number: ERS12561828”; conditions: 2 µM
[8] = as §1, with “on WLS-170” for “on Z-029”, “to human” for “to rat”, “number: ERS12561762” for “number: ERS12561828”; conditions: 2 µM
[9] = as §1, with “on WLS-069” for “on Z-029”, “to human” for “to rat”, “number: ERS12561748” for “number: ERS12561828”; conditions: 2 µM
[10] = as §1, with “on WLS-039” for “on Z-029”, “to human” for “to rat”, “number: ERS12561746” for “number: ERS12561828”; conditions: 2 µM
[11] = as §1, with “on WLS-027” for “on Z-029”, “to human” for “to rat”, “number: ERS12561744” for “number: ERS12561828”; conditions: 2 µM
[12] = human gut metagenome, 24 h, 2 µM
[13] = human gut metagenome, 24 h, 2 µM; remark: listed apart in the source
[14] = human gut metagenome, 24 h, 2 µM; remark: listed apart in the source
[15] = human gut metagenome, 24 h, 2 µM; remark: listed apart in the source
[16] = human gut metagenome, 24 h, 2 µM; remark: listed apart in the source
[17] = human gut metagenome, 24 h, 2 µM; remark: listed apart in the source
[18] = human gut metagenome, 24 h, 2 µM; remark: listed apart in the source
[19] = human gut metagenome, 24 h, 2 µM; remark: listed apart in the source
[20] = human gut metagenome, 24 h, 2 µM; remark: listed apart in the source
Also: call rule not given here.

Structure (SMILES)	Bacterial Biotransformation [1]	Bacterial Biotransformation [2]	Bacterial Biotransformation [3]	Bacterial Biotransformation [4]	Bacterial Biotransformation [5]	Bacterial Biotransformation [6]	Bacterial Biotransformation [7]	Bacterial Biotransformation [8]	Bacterial Biotransformation [9]	Bacterial Biotransformation [10]	Bacterial Biotransformation [11]	Bacterial Biotransformation [12]	Bacterial Biotransformation [13]	Bacterial Biotransformation [14]	Bacterial Biotransformation [15]	Bacterial Biotransformation [16]	Bacterial Biotransformation [17]	Bacterial Biotransformation [18]	Bacterial Biotransformation [19]	Bacterial Biotransformation [20]
COc1ccccc1OCC(O)COC(N)=O (stereo not given) [METHOCARBAMOL]	Compound NOT metabolized	Compound NOT metabolized	Compound NOT metabolized	Compound NOT metabolized	Compound NOT metabolized	Compound NOT metabolized	Compound NOT metabolized	Compound NOT metabolized	Compound NOT metabolized	Compound NOT metabolized	Compound NOT metabolized	Compound NOT metabolized	Compound NOT metabolized	Compound NOT metabolized	Compound NOT metabolized	Compound NOT metabolized	Compound NOT metabolized	Compound NOT metabolized	Compound NOT metabolized	Compound NOT metabolized
CC[C@@H](CO)NC(=O)[C@@H]1C=C2c3cccc4c3c(cn4C)C[C@H]2N(C)C1.O=C(O)/C=C\C(=O)O [METHYSERGIDE MALEATE]	Compound NOT metabolized	Compound NOT metabolized	Compound NOT metabolized	Compound NOT metabolized	Compound NOT metabolized	Compound NOT metabolized	Compound NOT metabolized	Compound metabolized	Compound NOT metabolized	Compound NOT metabolized	Compound NOT metabolized	Compound NOT metabolized	Compound metabolized	Compound metabolized	Compound NOT metabolized	Compound NOT metabolized	Compound metabolized	Compound NOT metabolized	Compound NOT metabolized	Compound NOT metabolized
CCN(CC)CCNC(=O)c1cc(Cl)c(N)cc1OC [METOCLOPRAMIDE]	Compound NOT metabolized	Compound NOT metabolized	Compound NOT metabolized	Compound NOT metabolized	Compound NOT metabolized	Compound NOT metabolized	Compound NOT metabolized	Compound NOT metabolized	Compound NOT metabolized	Compound NOT metabolized	Compound NOT metabolized	Compound NOT metabolized	Compound NOT metabolized	Compound NOT metabolized	Compound NOT metabolized	Compound NOT metabolized	Compound NOT metabolized	Compound NOT metabolized	Compound NOT metabolized	Compound NOT metabolized
Cc1ccccc1N1C(=O)c2cc(S(N)(=O)=O)c(Cl)cc2NC1C (stereo not given) [METOLAZONE]	Compound NOT metabolized	Compound NOT metabolized	Compound NOT metabolized	Compound NOT metabolized	Compound NOT metabolized	Compound NOT metabolized	Compound metabolized	Compound NOT metabolized	Compound NOT metabolized	Compound NOT metabolized	Compound NOT metabolized	Compound metabolized	Compound NOT metabolized	Compound NOT metabolized	Compound NOT metabolized	Compound NOT metabolized	Compound NOT metabolized	Compound NOT metabolized	Compound metabolized	Compound NOT metabolized
COCCc1ccc(OCC(O)CNC(C)C)cc1.COCCc1ccc(OCC(O)CNC(C)C)cc1.O=C(O)C(O)C(O)C(=O)O (stereo not given) [METOPROLOL TARTRATE]	Compound NOT metabolized	Compound NOT metabolized	Compound NOT metabolized	Compound NOT metabolized	Compound NOT metabolized	Compound metabolized	Compound NOT metabolized	Compound metabolized	Compound NOT metabolized	Compound NOT metabolized	Compound NOT metabolized	Compound NOT metabolized	Compound metabolized	Compound NOT metabolized	Compound NOT metabolized	Compound NOT metabolized	Compound metabolized	Compound NOT metabolized	Compound metabolized	Compound NOT metabolized
COc1c(C)c2c(c(O)c1C/C=C(\C)CCC(=O)OCCN1CCOCC1)C(=O)OC2 [MYCOPHENOLATE MOFETIL]	Compound metabolized	Compound metabolized	Compound metabolized	Compound metabolized	Compound metabolized	Compound metabolized	Compound metabolized	Compound metabolized	Compound metabolized	Compound metabolized	Compound metabolized	Compound metabolized	Compound metabolized	Compound metabolized	Compound metabolized	Compound metabolized	Compound metabolized	Compound metabolized	Compound metabolized	Compound metabolized
CCN(CC)CCOC(=O)C(Cc1cccc2ccccc12)CC1CCCO1.O=C(O)C(=O)O (stereo not given) [NAFRONYL OXALATE]	Compound NOT metabolized	Compound NOT metabolized	Compound NOT metabolized	Compound NOT metabolized	Compound metabolized	Compound metabolized	Compound metabolized	Compound metabolized	Compound metabolized	Compound metabolized	Compound metabolized	Compound metabolized	Compound metabolized	Compound metabolized	Compound NOT metabolized	Compound metabolized	Compound metabolized	Compound NOT metabolized	Compound metabolized	Compound metabolized
C=CCN1CC[C@]23c4c5ccc(O)c4O[C@H]2C(=O)CC[C@@]3(O)[C@H]1C5 [NALOXONE]	Compound NOT metabolized	Compound NOT metabolized	Compound NOT metabolized	Compound NOT metabolized	Compound NOT metabolized	Compound NOT metabolized	Compound NOT metabolized	Compound NOT metabolized	Compound NOT metabolized	Compound NOT metabolized	Compound NOT metabolized	Compound NOT metabolized	Compound NOT metabolized	Compound NOT metabolized	Compound NOT metabolized	Compound NOT metabolized	Compound NOT metabolized	Compound NOT metabolized	Compound NOT metabolized	Compound NOT metabolized
